According to patent US20220380341A1, “INHIBITORS OF HIV-1 NEF FOR THE TREATMENT OF HIV DISEASE” (priority 2018, published 2022):
Read-outs that look alike come from different tables or passages of the source.

Key:
[1] = tested on: HIV-1NL4-3; experiment: HIV-1 infectivity assay in TZM-bl reporter cell line (LTR-luciferase, 48 h); format: cell-based; conditions: for inhibition at 1 µM: Human immunodeficiency virus 1, TZM-bl
Outline: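 TZM-bl cells infected with HIV-1NL4-3 ± compound (1 μM), luciferase measured at 48 h. Normalization: DMSO/wild-type = 0% inhibition, DMSO/Nef-defective = 100% of Nef-dependent effect.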

[2] = tested on: TZM-bl cell line; format: cell-based; conditions: 1 μM
Outline: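 Luciferase read-out 48 h post-infection; compound at 1 μM during HIV-1NL4-3 infection of TZM-bl cells. Percent inhibition scaled to DMSO wild-type virus (0%) and DMSO Nef-defective virus (100% of Nef-dependent effect). Viability checked separately in uninfected cells by Cell Titer Blue.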

[3] = target: HIV-1 NefNL4-3 (Human immunodeficiency virus type 1 group M subtype B, UniProt P03406, A33V/T15A/T51N/V11I); experiment: Surface plasmon resonance binding to recombinant full-length Nef (NL4-3); conditions: for RU30/RUNef (extent of binding): response units at 30 μM relative to Nef immobilized on the SPR chip
[4] = 1.0 μM, TZM-bl reporter cell line, Table 4, read-out: % Infectivity Inhibition
[5] = 48 h, Table 1, TZM-bl cells, 1 μM, 48 h, 100% = Nef-defective HIV-1, read-out: HIV-1 Infectivity % Inhibition Norm. to Δ-Nef @ 1 μM
[6] = read-out: Nef NL4-3 Binding, SPR 1:1 or 2-site fitting KD2, Table 1, 2-site fit, second component
[7] = KD, M, Table 4, SPR fit 1:1 Langmuir, KD = koff/kon
[8] = Table 4, 1:1 Langmuir fit, T = 1/koff

Cn1ccc(-c2nn(-c3nc4ccccc4[nH]3)c(O)c2CCc2ccc(F)cc2)cc1=O [Compound I-133, 4-[1-(1H-1,3-benzodiazol-2-y1)-4-[2-(4-fluorophenyl)ethyl]-5-hydroxy-1H-pyrazol-3-yl]-1-methyl-1,2-dihydropyridin-2-one] was tested, and the inhibition at 1 µM [1, 4] was 16%, the inhibition at 1 µM [1, 5] was 16% and the “% Cell Viability” value ([2]; human) was 100%. The “Percent Viability @ 1 μM (TZM-bl cells)” value ([2]; human) was 102.5%, the Kd [3] was 779 nM and the Kd ([3]; KD, M, Table 4, SPR fit 2-step induced fit, KD = koff/kon × koff2/(koff2 + kon2)) was 1.51 nM. The Kd ([3]; Nef NL4-3 Binding, SPR 2-state fitting KD, Table 1, 2-step induced-fit model) was 1.51 nM, the “T, minutes (residence time)” value ([3]; Table 4, 2-step induced fit, T = 1/koff2) was 8.59E + 03 minutes and the Kd [3, 6] was 65300 nM. The “RU30/RUNef (extent of binding)” value [3] was 2.76E- 03.
For “1-(1H-1,3-benzodiazol-2-yl)-4-[2-(4-fluorophenyl)ethyl]-3-(1-{[2-(1H-pyrrol-1-yl)phenyl]methyl}piperidin-4-yl)-1H-pyrazol-5-ol [Compound I-805]”, the “HIV-1 Infectivity % Inhibition Norm. to Δ-Nef @ 1 μM” value ([1]; Table 1, TZM-bl cells, 1 μM, 48 h, 100% = Nef-defective HIV-1) was 33.9%, the “Percent Viability @ 1 μM (TZM-bl cells)” value ([2]; Table 1, uninfected TZM-bl cells, Cell Titer Blue) was 93.7% and the Kd ([3]; Table 1, 1:1 Langmuir fit where the KD2 cell says '1 to 1 fitting', else 2-site fit, read-out: Nef NL4-3 Binding, SPR 1:1 or 2-site fitting KD1) was 596 nM.
For CS(=O)(=O)c1ccc(-c2nn(-c3nc4ccccc4[nH]3)c(O)c2CCC2CCOCC2)cc1 [Compound I-149, 1-(1H-1,3-benzodiazol-2-yl)-3-(4-methanesulfonylphenyl)-4-[2-(oxan-4-yl)ethyl]-1H-pyrazol-5-ol], the inhibition at 1 µM [1, 5] was 54.5%, the “Percent Viability @ 1 μM (TZM-bl cells)” value ([2]; human) was 98.5% and the Kd [3] was 2330 nM.
O=C(Cc1ccncc1)N1CCCC(c2nn(-c3nc4ccccc4[nH]3)c(O)c2CCc2ccc(F)cc2)C1 (centres unmarked) [Compound I-757, 1-{3-[1-(1H-1,3-benzodiazol-2-yl)-4-[2-(4-fluorophenyl)ethyl]-5-hydroxy-1H-pyrazol-3-yl]piperidin-1-yl}-2-(pyridin-4-yl)ethan-1-one] was tested, and the inhibition at 1 µM [1, 5] was 17.2%, the “Percent Viability @ 1 μM (TZM-bl cells)” value ([2]; human) was 102.8% and the Kd [3] was 2390 nM.
In the case of CC(C)(C)OC(=O)N1CCN(Cc2nn(-c3nc4ccccc4[nH]3)c(O)c2CCc2ccc(F)cc2)CC1 [Compound I-211, tert-butyl 4-{[1-(1H-1,3-benzodiazol-2-yl)-4-[2-(4-fluorophenyl)ethyl]-5-hydroxy-1H-pyrazol-3-yl]methyl}piperazine-1-carboxylate], the inhibition at 1 µM [1, 4] is reported as 0%, the inhibition at 1 µM [1, 5] is reported as -19.4% and the “% Cell Viability” value ([2]; human) is reported as 100%. For the same molecule, the “Percent Viability @ 1 μM (TZM-bl cells)” value ([2]; human) was 103.5%, the Kd [3] was 7220 nM and the Kd [3, 7] was 7220 nM. For the same molecule, the “T, minutes (residence time)” value [3, 8] was 1.65E + 00 minutes and the “RU30/RUNef (extent of binding)” value [3] was 2.89E- 03.
Cn1c(-n2nc(-c3ccc(S(C)(=O)=O)cc3)c(CCc3ccc(F)cc3)c2O)nc2ccccc21 [Compound I-403, 4-[2-(4-fluorophenyl)ethyl]-3-(4-methanesulfonylphenyl)-1-(1-methyl-1H-1,3-benzodiazol-2-yl)-1H-pyrazol-5-ol] was tested, and the inhibition at 1 µM [1, 4] was 4.1%, the inhibition at 1 µM [1, 5] was 4.1% and the “% Cell Viability” value ([2]; human) was 99.9%. The “Percent Viability @ 1 μM (TZM-bl cells)” value ([2]; human) was 99.9%, the Kd [3] was 2400 nM and the Kd [3, 7] was 2400 nM. The “T, minutes (residence time)” value [3, 8] was 3.63E + 00 minutes and the “RU30/RUNef (extent of binding)” value [3] was 2.88E- 03.
Oc1c(CCc2ccc(F)cc2)c(C2CCCN(CC(F)(F)F)C2)nn1-c1nc2ccccc2[nH]1 (centres unmarked) [Compound I-1002, 1-(1H-1,3-benzodiazol-2-yl)-4-[2-(4-fluorophenyl)ethyl]-3-[1-(2,2,2-trifluoroethyl)piperidin-3-yl]-1H-pyrazol-5-ol] was tested, and the inhibition at 1 µM [1, 5] was 22.7%, the “Percent Viability @ 1 μM (TZM-bl cells)” value ([2]; human) was 96.4% and the Kd [3, 6] was 1710 nM.
In the case of Nc1c(CCC2CCOCC2)c(-c2ccc(F)cc2)nn1-c1cc(C(F)(F)F)n[nH]1 [Compound I-1402], the inhibition at 1 µM ([1]; 48 h, Table 2, TZM-bl cells, 1 μM, 48 h, 100% = Nef-defective HIV-1, read-out: HIV-1 Infectivity % Inhibition Norm. to Δ-Nef @ 1 μM) is reported as 8.7%, the “Percent Viability @ 1 μM (TZM-bl cells)” value ([2]; human) is reported as 102.2% and the Kd [3] is reported as 4750 nM.
In the case of CCOC(=O)c1nn(-c2nc3ccccc3[nH]2)c(O)c1CCc1ccc(F)cc1 [Compound I-404, ethyl 1-(1H-1,3-benzodiazol-2-yl)-4-[2-(4-fluorophenyl)ethyl]-5-hydroxy-1H-pyrazole-3-carboxylate], the inhibition at 1 µM [1, 5] is reported as 1.3%, the “Percent Viability @ 1 μM (TZM-bl cells)” value ([2]; human) is reported as 100.5% and the Kd [3] is reported as 128 nM.
